How the values were obtained:
LR73 cells [1] = conditions: for effect on IGF-1 induced increase in liposome uptake / basal uptake of liposomes: LR73 cells; for effect on IGF-1 induced increase in liposome uptake: inhibitor plus IGF-1; for basal uptake of liposomes: inhibitor without IGF-1; for uptake of PtdSer containing liposomes by LR73 cells: liposomes of 150-200 nm, IGF-1 50 ng/mL, EGF or VEGF 100 ng/mL each
Experimental: (§1) LR73, SVEC-40, BEAS-2B, and 16HBE14o-cells were seeded in a 24 well plate. Thymocytes were isolated from 4-6 week old mice and induced to undergo apoptosis with dexamethasone. Thymocytes or prepared microvesicles were then stained with either CypHer5E (GE Healthcare, PA15401) or TAMRA (Invitrogen, C-1171). LR73 and SVEC-40 cells were incubated with apoptotic thymocytes at a 1:10 phagocyte to target ratio, BEAS-2B at a 1:5 phagocyte to target ratio, and 16HBE14o—at a 1:20 phagocyte to target ratio for 2 hours. Mouse IGF-I (Sigma-Aldrich), human IGF-I (Sigma-Aldrich), human IGF-II (Sigma-Aldrich) were added to the phagocytes at the same time as addition of apoptotic targets. For IGFBP3 studies, IGFBP3 (Sigma-Aldrich) was added to media or supernatant from J774 cells for one hour to allow IGFBP3 to bind to any available IGF-I, then the mix is added to phagocytes along with apoptotic targets. For all pharmacological studies, phagocytes were pre-incubated with the compounds listed below for one hour prior to addition of apoptotic targets: cytochalasin D (Sigma-Aldrich, C8273, 1 μM), Latrunculin A (Tocris, 3973, 150 nM), CK-666 (Tocris, 3950, 25 μM-100 μM), OSI-906 (Selleckchem, S1091, 5 nM-40 nM), NVP-AEW541 (Selleckchem, S1034, 25 nM-100 nM), Rapamycin (Sigma-Aldrich, R0395, […]), MK-2206 2HCl (Selleckchem, S1078, 10 nM-1 U0126-EtOH (Selleckchem, S1102, […]), Wortmannin (Sigma-Aldrich, W1628, 50 nM-200 nM), Y27632 (Calbiochem, 688000, 3.75 μM-15 μM), or GSK269962 (Tocris, 4009, 80 nM-2 μM). […] Targets were then washed off three times with PBS, and the cells were dissociated from the plate with trypsin and the engulfment assessed by flow cytometry.
Liposomes were prepared by dissolving the lipids (phosphatidylserine, dioleoyl phosphatidylcholine, cholesterol and the lipid DiD dye) in chloroform, evaporating chloroform under flow of argon gas in a glass vial, then subjecting the lipid layer to overnight lyophilization to remove traces of organic solvent. Then normal saline was added for hydration, and intense vortexing was preformed to prepare multilamellar vesicles (MIN). Liposomes were repeatedly filtered through a 0.2 um Nuclepore polycarbonate filter to prepare smaller particles. Particle size was verified by dynamic light scattering using Nicomp 370.

LR73 cells [2] = assay: In vitro engulfment assay: apoptotic thymocyte uptake by LR73 cells; type: cell-based, hamster; conditions: for basal phagocytosis of apoptotic cells with inhibitor alone: without IGF-1; for reversal of IGF-1 mediated engulfment suppression in LR73 cells: agent added in the presence of IGF-1; for apoptotic cell uptake (engulfment) by LR73 cells: soluble mediator alone, IGF-I at concentrations reported in serum (100-600 ng/mL), other factors over a range of concentrations; for apoptotic cell uptake by LR73 cells: human insulin or human IGF-II, at higher concentrations than IGF-1
Experimental: as §1

[3] = test system: IGF-1R, Akt and Erk1/2 phosphorylation in LR73 cells; assay: Immunoblotting of signaling in LR73 cells; type: cell-based, hamster; conditions: for phosphorylation of IGF-1R and Erk: LR73 cells stimulated with IGF-1 and treated with inhibitor; for early downstream signaling events (Erk1/2 phosphorylation): serum-starved LR73 cells, 100 ng/mL growth factor
Experimental: LR73, J774, or BEAS-2B cells were seeded in a 60 mm dish at a concentration of 5×10^5. […] Cells were lysed in RIPA buffer and used in Western blots. The blots were probed for phospho-Erk1/2 (Cell Signaling Technology, #4370), phospho-Akt (Cell Signaling Technology, #4060), phospho-IGF-1R (Cell Signaling, #3024), total Erk2 (Santa Cruz Biotechnology, #sc-154-G), total Akt (Cell Signaling Technology, #4691), total IGF-1R (Cell Signaling, #9750), and anti-B-actin-HRP (Sigma-Aldrich, #A3854) followed by chemiluminescence detection.

IGF-1 in BAL fluid = assay: In vivo cytokine administration: IGF-1 in BAL fluid; conditions: 1 μg recombinant mouse cytokine intranasally for two consecutive days
Experimental: Mice were administered intranasally with 1 μg of recombinant mouse IL-4, IL-5, or IL-13 (eBiosciences), 1×10^6 apoptotic Jurkat cells, or PBS as control, for two consecutive days. On the third day, BAL fluid was recovered and centrifuged; the supernatant was stored at −80° C. for subsequent cytokine analysis. IL-4, IL-5, IL-6, and CCL-11/Eotaxin-1 in the BAL fluid of mice that were sensitized with HDM (regimen #1) were quantified by a multiplex Luminex performed by the University of Virginia Flow Cytometry Core Facility. Secretion of IGF-1 from J774 cells, peritoneal macrophages, and BAL fluids, as well as TSLP from BAL fluids, were measured by ELISA (R&D Systems).

[4] = test system: MH-S alveolar macrophages; assay: Microvesicle secretion by MH-S alveolar macrophages; type: cell-based, mouse; conditions: IL-4 treated MH-S alveolar macrophages, counted using qNano
Experimental: MH-S, mouse alveolar macrophages, or primary mouse alveolar macrophages were seeded. After adherence, the media was replaced with 0.22 μm filtered media to remove any contaminating microvesicles. After an overnight incubation, the supernatant was harvested and spun at 5000×g to remove cell debris and apoptotic bodies. The pellet was discarded and the resulting supernatant was filtered through 0.8 μm filter and spun again at 17,000×g. The pelleted microvesicles were then washed with HBSS and then spun again at 17,000×g. For engulfment assays, microvesicles were stained with TAMRA for 20 minutes and then added to BEAS-2B cells for 90 minutes. For flow cytometry, purified particles were stained with CD11c, Siglec F, and Annexin V (BD Biosciences, Cat. No. 550475) and processed on Imagestream™ imaging flow cytometer (Amnis). Microvesicle size distribution was characterized using qNano (IZON Science) with a NP400 membrane and at least 500 particles were counted. Microvesicles were prepared for cryo-electron microscopy using standard methods and imaged on an FEI TF20.

peritoneal macrophages = assay: IGF-1 secretion by peritoneal macrophages (ELISA); type: cell-based, mouse; conditions: treated with IL-4
Experimental: To obtain bone-marrow derived macrophages, femurs were removed from 8 week old mice and flushed with 5 mL of sterile PBS containing 5% FBS. The cell suspension was centrifuged, treated with red blood cell lysis buffer, washed, and then plated onto sterile petri dishes in DMEM containing 10% L929 media, 10% FBS and 1% penicillin/streptomycin/glutamine (PSQ). Media was replenished every 2 to 3 days and differentiated cells were used at day 6 post-harvest. Resident peritoneal macrophages were obtained by flushing the peritoneal cavity of mice with 10 mL of cold PBS containing 5% FBS. Collected cells were spun down, resuspended in X-VIVO 10 (Lonza) and plated at a concentration of 3×10^5 cells per well in a 24 well plate for IGF-1 secretion assays, and 5×10^5 per well in a 24 well plate for engulfment assays. Floating cells were washed the next day and remaining peritoneal macrophages were used 2 days after isolation. […]
IL-4, IL-5, IL-6, and CCL-11/Eotaxin-1 in the BAL fluid of mice that were sensitized with HDM (regimen #1) were quantified by a multiplex Luminex performed by the University of Virginia Flow Cytometry Core Facility. Secretion of IGF-1 from J774 cells, peritoneal macrophages, and BAL fluids, as well as TSLP from BAL fluids, were measured by ELISA (R&D Systems).

IC-21 cells = assay: Apoptotic thymocyte engulfment by IC-21 cells; type: cell-based; conditions: indicated concentrations of mouse IGF-1 or human insulin

Question: With `Cc1[nH]c2ccccc2c1CCNC(=O)c1ccccc1F` [CK-666] as the molecule, how does the “effect on IGF-1 induced increase in liposome uptake” value (from here on “effect on IGF-1 induced increase”) (LR73 cells [1]) read?
Answer: minimal effect

Question: For `C=C1[C@@H](C)[C@H]2[C@H](Cc3ccccc3)NC(=O)[C@]23[C@H](OC(C)=O)/C=C/[C@@](C)(O)C(=O)[C@@H](C)C/C=C/[C@H]3[C@@H]1O` [Cytochalasin D], which “effect on IGF-1 induced increase” value (LR73 cells [1]) is on record?
Answer: blocked the IGF-1 induced increase in liposome uptake

Question: And the “basal uptake of liposomes” value (LR73 cells [1])?
Answer: did not affect the basal uptake of liposomes

Question: And the “morphology of treated LR73 cells” value (LR73 cells [1]; for the duration of the assay)?
Answer: appeared morphologically normal

Question: What about the “basal phagocytosis of apoptotic cells with inhibitor alone” value (LR73 cells [2]) of the same molecule?
Answer: potently inhibited phagocytosis of apoptotic cells

Question: `CCn1c(-c2nonc2N)nc2cnc(Oc3cccc(NC(=O)c4ccc(OCCN5CCOCC5)cc4)c3)cc21` [GSK269962, reference compound] was tested. Which “reversal of IGF-1 mediated engulfment suppression in LR73 cells” value (shortened to “reversal … in LR73 cells”) (LR73 cells [2]) did it give?
Answer: does not appear to rescue IGF-1 induced engulfment suppression

Question: And the “basal phagocytosis of apoptotic cells with inhibitor alone” value (LR73 cells [2])?
Answer: basally increases phagocytosis of apoptotic cells

Question: `C/C1=C/C(=O)O[C@@H]2C[C@@H](CC[C@H](C)/C=C\C=C\CC1)O[C@@](O)([C@@H]1CSC(=O)N1)C2` [Latrunculin A] was tested. Which “effect on IGF-1 induced increase” value (LR73 cells [1]) did it give?
Answer: reversed IGF-1 mediated enhancement of liposome uptake

Question: What about the “basal uptake of liposomes” value (LR73 cells [1]) of the same molecule?
Answer: without affecting the basal uptake of liposomes

Question: What does the source list for `Nc1ncnc2c1c(-c1cccc(OCc3ccccc3)c1)cn2C1CC(CN2CCC2)C1` (centres unmarked) [NVP-AEW541, reference compound]?
Answer: phosphorylation of IGF-1R and Erk [3]: concomitant decrease in phosphorylation of IGF-1R and Erk; reversal of IGF-1 mediated engulfment suppression in LR73 cells (LR73 cells [2]): rescued the engulfment capacity of LR73 cells

Question: With `C[C@]1(O)C[C@@H](c2nc(-c3ccc4ccc(-c5ccccc5)nc4c3)c3c(N)nccn32)C1` [OSI-906, reference compound] as the molecule, how does the “phosphorylation of IGF-1R and Erk” value [3] read?
Answer: concomitant decrease in phosphorylation of IGF-1R and Erk

Question: What about the “effect on IGF-1 induced increase” value (LR73 cells [1]) of the same molecule?
Answer: reduced the increased liposome uptake

Question: And the “reversal … in LR73 cells” value (LR73 cells [2])?
Answer: rescued the engulfment capacity of LR73 cells

Question: What does the source list for `C[C@@H](N)[C@H]1CC[C@H](C(=O)Nc2ccncc2)CC1` [Y27632, reference compound]?
Answer: reversal of IGF-1 mediated engulfment suppression in LR73 cells (LR73 cells [2]): does not appear to rescue IGF-1 induced engulfment suppression; basal phagocytosis of apoptotic cells with inhibitor alone (LR73 cells [2]): basally increases phagocytosis of apoptotic cells

Question: With “EGF: growth factor of the tested panel of soluble mediators (NSDSECPLSHDGYCLHDGVCMYIEALDKYACNCVVGYIGERCQYRDLKWWELR; Epidermal growth factor; UniProt P01133 971-1023, looked up)” as the molecule, how does the “early downstream signaling events (Erk1/2 phosphorylation)” value [3] read?
Answer: elicited early downstream signaling events

Question: And the “uptake of PtdSer containing liposomes by LR73 cells” value (LR73 cells [1])?
Answer: not seen

Question: And the “apoptotic cell uptake (engulfment) by LR73 cells” value (LR73 cells [2])?
Answer: did not alter engulfment

Question: How did the “reversal of suppression by macrophage produced IGF-1” value (LR73 cells [2]; J774 supernatant incubated with IGFBP3, LR73 cells) turn out when “IGFBP3: IGF binding protein that stabilizes and sequesters IGF-1 (Sigma-Aldrich)” was run?
Answer: reversed by IGFBP3 addition

Question: And the “reversal … in LR73 cells” value (LR73 cells [2])?
Answer: restored the phagocytic capability of LR73 cells

Question: And the “basal phagocytosis by LR73 cells” value (LR73 cells [2]; supernatant of unstimulated J774 cells plus IGFBP3)?
Answer: increases the basal phagocytosis

Question: Which results are given for “IL-4: cytokine; recombinant mouse IL-4 (eBiosciences)”?
Answer: IGF-1 in bronchoalveolar lavage (BAL) fluid (IGF-1 in BAL fluid): increased level of IGF-1; microvesicles secretion by macrophages [4]: increased microvesicles secretion; IGF-1 secretion by peritoneal macrophages (peritoneal macrophages): confirmed IGF-1 secretion

Question: What does the source list for “PDGF-AA: growth factor of the tested panel of soluble mediators”?
Answer: early downstream signaling events (Erk1/2 phosphorylation) [3]: elicited early downstream signaling events; apoptotic cell uptake (engulfment) by LR73 cells (LR73 cells [2]): did not alter engulfment

Question: What does the source list for VEGF?
Answer: early downstream signaling events (Erk1/2 phosphorylation) [3]: elicited early downstream signaling events; uptake of PtdSer containing liposomes by LR73 cells (LR73 cells [1]): not seen; apoptotic cell uptake (engulfment) by LR73 cells (LR73 cells [2]): did not alter engulfment

Question: What does the source list for fibroblast growth factor 2 [FGF2]?
Answer: early downstream signaling events (Erk1/2 phosphorylation) [3]: elicited early downstream signaling events; apoptotic cell uptake (engulfment) by LR73 cells (LR73 cells [2]): did not alter engulfment

Question: With insulin-like growth factor II [IGF-II] as the molecule, how does the “apoptotic cell uptake by LR73 cells” value (LR73 cells [2]) read?
Answer: could also reduce apoptotic cell uptake

Question: How did the “apoptotic cell uptake by LR73 cells” value (LR73 cells [2]) turn out when “insulin: shares structural similarity with IGF-1, lower affinity for IGF-1R” was run?
Answer: could also reduce apoptotic cell uptake

Question: What about the “corpse uptake by IC-21 cells” value (IC-21 cells) of the same molecule?
Answer: engulf apoptotic cells at normal capacity
